# Where a name gives a salt, the structure may show the parent alone.
row,SMILES,melting point
1,"CC(=O)Nc1cnn(-c2ccc(S(C)(=O)=O)c(F)c2)c1-c1ccc(-c2cscn2)cc1 [Example 164, N-[1-[3-Fluoro-4-(methylsulfonyl)phenyl]-5-[4-(1,3-thiazol-4-yl)phenyl]-1H-pyrazol-4-yl]acetamide]",225.2 °C
2,"Cc1cc(-c2ccc(S(C)(=O)=O)cc2)n(-c2ccc(-c3ccoc3)cc2)c1 [Example 55, 1-[4-(3-Furyl)phenyl]-4-methyl-2-[4-(methylsulfonyl)phenyl]-1H-pyrrole]",154 to 156 °C
3,"COc1cc(-n2nc(C(F)(F)F)cc2-c2ccc(-c3ccco3)cc2)ccc1S(N)(=O)=O (as salt: hydrochloride) [Example 148, 4-[5-[4-(2-Furyl)phenyl]-3-(trifluoromethyl)-1H-pyrazol-1-yl]-2-methoxybenzenesulfonamide]",206.7 °C
4,"Cc1onc(-c2ccc(S(C)(=O)=O)cc2)c1-c1ccc(-c2cscn2)cc1 [Example 189, 5-Methyl-3-[4-(methylsulfonyl)phenyl]-4-[4-(1,3-thiazol-4-yl)phenyl]isoxazole]",159 °C
5,"Cc1cc(-c2cc(C(F)F)nn2-c2ccc(S(C)(=O)=O)c(F)c2)ccc1-c1cscn1 [Example 194, 4-[4-[3-(Difluoromethyl)-1-[3-Fluoro-4-(methylsulfonyl)phenyl]-1H-pyrazol-5-yl]-2-methylphenyl]-1,3-thiazole]",122.9 °C
6,"CS(=O)(=O)c1ccc(-n2nc(C(F)(F)F)cc2-c2ccc(-c3cscn3)cc2)cc1Cl [Example 158, 1-[3-Chloro-4-(methylsulfonyl)phenyl]-5-[4-(4-thiazolyl)phenyl]-3-trifluoromethyl-1H-pyrazole]",103 to 107 °C
7,"Cc1cc(-n2c(C)ccc2-c2ccc(S(C)(=O)=O)cc2)ccc1-c1ccoc1 [Example 39, 1-[4-(3-Furyl)-3-methylphenyl]-2-methyl-5-[4-(methylsulfonyl)phenyl]-1H-pyrrole]",69 to 75 °C
8,"Cc1nc(-c2ccc(S(N)(=O)=O)c(F)c2)c(-c2ccc(-c3cscn3)cc2)o1 [Example 193, 2-fluoro-4-[2-methyl-5-[4-(1,3-thiazol-4-yl)phenyl]-1,3-oxazol-4-yl]benzenesulfonamide]",192 to 194 °C
9,"CS(=O)(=O)c1ccc(-n2nc(C(F)(F)F)cc2-c2ccc(-c3ncco3)cc2)cc1 (as salt: hydrochloride) [Example 97, 2-{4-[1-[4-(Methylsulfonyl)phenyl]-3-(trifluoromethyl)-1H-pyrazol-5-yl]phenyl}-1,3-oxazole]",190 to 192 °C
10,"NS(=O)(=O)c1ccc(-n2nc(C(F)(F)F)cc2-c2ccc(-c3cscn3)c(C(F)(F)F)c2)cc1F [Example 176, 2-Fluoro-4-[5-[4-(1,3-thiazol-4-yl)-3-(trifluoromethyl)phenyl]-3-(trifluoromethyl)-1H-pyrazol-1-yl]benzenesulfonamide]",140 to 142 °C
11,"Cc1cc(-c2ccnn2-c2ccc(S(N)(=O)=O)c(F)c2C(F)F)ccc1-c1cscn1 (as salt: hydrochloride) [Example 195, 3-(Difluoromethyl)-2-fluoro-4-[5-[3-methyl-4-(1,3-thiazol-4-yl)phenyl]-1H-pyrazol-1-yl]benzenesulfonamide]",204.3 °C
12,"Cc1ccc(-c2ccc(S(C)(=O)=O)cc2)n1-c1ccc(-c2ccco2)cc1 [Example 44, 1-[4-(2-Furyl)phenyl]-2-methyl-5-[4-(methylsulfonyl)phenyl]-1H-pyrrole]",145 to 147 °C
13,"CS(=O)(=O)c1ccc(-n2nc(C(F)(F)F)cc2-c2ccc(-c3cscn3)c(F)c2)cc1 (as salt: hydrochloride) [Example 124, 4-{2-Fluoro-4-[1-[4-(methylsulfonyl)phenyl]-3-(trifluoromethyl)-1H-pyrazol-5-yl]phenyl}-1,3-thiazole]",176 to 178 °C
14,"CS(=O)(=O)c1ccc(-n2nc(C(F)(F)F)cc2-c2ccc(-n3ccnc3)cc2)cc1 [Example 66, 5-[4-(1-Imidazolyl)phenyl]-1-[4-(methylsulfonyl)phenyl]-3-trifluoromethyl-1H-pyrazol]",183 to 184 °C
15,"Cc1scnc1-c1ccc(-c2cc(C(F)(F)F)nn2-c2ccc(S(C)(=O)=O)c(F)c2)cc1 [Example 104, 4-{4-[1-[3-Fluoro-4-(methylsulfonyl)phenyl]-3-(trifluoromethyl)-1H-pyrazol-5-yl]phenyl}-5-methyl-1,3-thiazole]",170 to 172 °C
16,"CS(=O)(=O)c1ccc(C2=C(c3ccc(-c4cccs4)cc3)C(=O)OC2)cc1 [Example 33, 3-[4-(2-Thienyl)phenyl]-4-[4-(methylsulfonyl)phenyl]-2-(5H)-furanone]",198 to 201 °C
17,"CS(=O)(=O)c1ccc(-n2nc(C(F)(F)F)cc2-c2ccc(-c3ccco3)cc2)cc1F [Example 60, 1-[3-Fluoro-4-(methylsulfonyl)phenyl]-5-[4-(2-furyl)phenyl]-3-(trifluoromethyl)-1H-pyrazole]",129 to 130 °C
18,"Cc1onc(-c2ccc(-c3cscn3)cc2)c1-c1ccc(S(N)(=O)=O)c(F)c1 [Example 172, 2-Fluoro-4-{5-methyl-3-[4-(1,3-thiazol-4-yl)phenyl]-4-isoxazolyl}benzenesulfonamide]",216 °C

row,SMILES,melting point
1,"CCOC(=O)c1cc(-c2ccc(-c3ccco3)cc2)n(-c2ccc(S(C)(=O)=O)cc2)n1 [Example 65, Ethyl 5-[4-(2-furyl)phenyl]-1-[4-(methylsulfonyl)phenyl]-1H-pyrazole-3-carboxylate]",180.9 to 181.1 °C
2,"Cc1cc(-c2cc(C(F)(F)F)nn2-c2ccc(S(C)(=O)=O)cc2)ccc1-c1ccco1 (as salt: hydrochloride) [Example 31, 1-[4-(Methylsulfonyl)phenyl]-5-[4-(2-furyl)-3-methylphenyl]-3-(trifluoromethyl)-1H-pyrazole]",174 to 176 °C
3,"CS(=O)(=O)c1ccc(-n2nccc2-c2ccc(-c3ccco3)cc2)cc1F [Example 162, 1-[3-Fluoro-4-(methylsulfonyl)phenyl]-5-[4-(2-furyl)phenyl]-1H-pyrazole]",155 to 156 °C
4,"Cc1cc(-c2ccc(-c3ccoc3)cc2)n(-c2ccc(S(C)(=O)=O)cc2)c1 [Example 56, 2-[4-(3-Furyl)phenyl]-4-methyl-1-[4-(methylsulfonyl)phenyl]-1H-pyrrole]",193 to 195 °C
5,"Cc1cc(-c2cc(C(F)(F)F)nn2-c2ccc(S(N)(=O)=O)cc2)ccc1-c1cocn1 (as salt: hydrochloride) [Example 116, 4-[5-[3-Methyl-4-(1,3-oxazol-4-yl)phenyl]-3-(trifluoromethyl)-1H-pyrazol-1-yl]benzenesulfonamide]",112 to 114 °C
6,"CS(=O)(=O)c1ccc(-n2nc(C(=O)N3CCOCC3)cc2-c2ccc(-c3ccco3)cc2)cc1F [Example 130, 1-[3-Fluoro-4-(methylsulfonyl)phenyl]-5-[4-(2-furyl)phenyl]-3-(4-morpholinecarbonyl)-1H-pyrazole]",221 to 222 °C
7,"COc1cc(-c2cc(C(F)(F)F)nn2-c2ccc(S(N)(=O)=O)c(F)c2)ccc1-c1cscn1 (as salt: hydrochloride) [Example 175, 2-Fluoro-4-[5-[3-methoxy-4-(1,3-thiazol-4-yl)phenyl]-3-(trifluoromethyl)-1H-pyrazol-1-yl]benzenesulfonamide]",97 to 99 °C
8,"Cc1nc(-c2ccc(-c3cccs3)cc2)c(-c2ccc(S(C)(=O)=O)cc2)o1 [Example 50, 2-Methyl-5-[4-(methylsulfonyl)phenyl]-4-[4-(2-thienyl)phenyl]oxazole]",183 to 185 °C
9,"NS(=O)(=O)c1ccc(-n2nc(C(F)(F)F)cc2-c2ccc(-c3ccco3)cc2)cc1Cl (as salt: hydrochloride) [Example 144, 2-Chloro-4-[5-[4-(2-furyl)phenyl]-3-(trifluoromethyl)-1H-pyrazol-1-yl]benzenesulfonamide]",192.6 °C
10,"Cc1cc(-c2cc(C(F)(F)F)nn2-c2ccc(S(C)(=O)=O)c(F)c2)ccc1-c1cscn1 [Example 106, 4-{4-[1-[3-Fluoro-4-(methylsulfonyl)phenyl]-3-(trifluoromethyl)-1H-pyrazol-5-yl]-2-methylphenyl}-1,3-thiazole]",112 to 114 °C
11,"Cc1cc(S(C)(=O)=O)ccc1-n1nc(C(F)(F)F)cc1-c1ccc(-c2ccco2)cc1 (as salt: hydrochloride) [Example 142, 5-[4-(2-Furyl)phenyl]-1-[4-(methylsulfonyl)-2-methylphenyl]-3-trifluoromethyl-1H-pyrazole]",205 °C
12,"Cc1ccc(-c2ccc(S(C)(=O)=O)cc2)n1-c1ccc(-c2ccoc2)cc1 [Example 38, 5-[4-(Methylsulfonyl)phenyl]-1-[4-(3-furyl)phenyl]-2-methyl-1H-pyrrole]",200 to 202 °C
13,"COc1cc(-n2nc(C(F)(F)F)cc2-c2ccc(-c3ccco3)cc2)ccc1S(C)(=O)=O (as salt: hydrochloride) [Example 136, 5-[4-(2-Furyl)phenyl]-1-[3-methoxy-4-(methylsulfonyl)phenyl]-3-trifluoromethyl-1H-pyrazole]",138.9 °C
14,"Cc1ccc(-c2ccc(S(C)(=O)=O)cc2)n1-c1ccc(-c2ccoc2)c(Cl)c1 [Example 41, 1-[3-Chloro-4-(3-furyl)phenyl]-2-methyl-5-[4-(methylsulfonyl)phenyl]-1H-pyrrole]",165 to 168 °C
15,"CS(=O)(=O)c1ccc(-n2nc(C(F)(F)F)cc2-c2ccc(-c3cncs3)cc2)cc1 [Example 24, 1-[4-(Methylsulfonyl)phenyl]-5-[4-(5-thiazolyl)phenyl]-3-trifluoromethyl-1H-pyrazole]",169 to 170 °C
16,"Cc1cc(-n2nc(C(F)(F)F)cc2-c2ccc(-c3ccco3)cc2)ccc1S(C)(=O)=O (as salt: hydrochloride) [Example 157, 5-[4-(2-Furyl)phenyl]-1-[3-methyl-4-(methylsulfonyl)phenyl]-3-(trifluoromethyl)-1H-pyrazole]",135 to 139 °C
17,"CS(=O)(=O)c1ccc(-n2nc(C(F)(F)F)cc2-c2ccc(-c3cccs3)cc2)cc1F [Example 86, 1-[3-Fluoro-4-(methylsulfonyl)phenyl]-5-[4-(2-thienyl)phenyl]-3-(trifluoromethyl)-1H-pyrazole]",75 to 76 °C

# — patent publication US6949536B2, “Sulfonylbenzene compounds as anti-inflammatory/analgesic agents” (Pfizer, Inc., priority 1998, dated 2005)
